We go through five compounds from patent US6872716B2, “Antipsychotic sulfonamide-heterocycles, and methods of use thereof” (Sepracor, Inc., priority 2000, dated 2005).

The nature of experiment [1]: formalin model (in vivo analgesia). The note with it: iv; administered intravenously. On the procedure:
(§1) The acetic acid writhing model was conducted according to Inoue K. et al. Arzneim. Forsch 1991, 41(I), 235. The formalin model was conducted according to Hunskaar, S. et al. J. Neurosci Meth. 1985, 14, 69. The tail flick model was conducted according to D'Amour F. E. and Smith D. L. J. Pharmacol. Exp. Ther. 1941, 72, 74. Compound 6 was administered intravenously.

The test system of experiment [2] is rats. The experiment in a line: learned helplessness test in rats. It counts as in vivo, rat. Conditions: male Wistar rats; dose of 5 mg/kg i.p. The protocol:
The objective of this study was to evaluate the potential antidepressant activity of compounds in the learned helplessness test in rats.
Male rats (Wistar, Iffa Credo, St.-Germain/1″Arbresle, France) with initial weight of 180-200 g at the beginning of the experiments were housed 3 per cage under dark cycle of 12 h-12 h (light on at 7:00 a.m., off at 7:00 p.m.) at a room temperature of 21±1° C., with a minimum 50% humidity, for a minimum of 7 days before the experiments. They had free access to commercial rat chow (UFAC, Vigney, France, ref 811002) and tap water. The learned helplessness test included two phases over 5 days.
Phase 1: Helplessness induction
On day 1, inescapable electric foot-shocks were delivered individually to rats in a Plexiglas chamber (20 cm×16 cm×16 cm [1×w×h]) with a floor consisting of stainless-steel rods. A constant-current shocker (LETICA LI 100-26, Barcelona, Spain) was used to deliver inescapable shocks (0.8 m A scrambled DC current; 10 s duration every 20 s) over 60 minutes. “Non-helplessness” control rats were placed for 1 h in identical chambers without shocking.
Phase 2: Conditional Avoidance Training
Avoidance training in automated two-way shuttle-box (LETICA LI916, Barcelona, Spain) took place on day 3, 4, and 5. The shuttle-box is divided into two equal-sized chambers connected by a 10×10 cm opening. […]

A short description of experiment [3]: acetic acid writhing model (in vivo analgesia). Conditions: iv; administered intravenously. The protocol:
as §1
For orientation: In writhing tests, fewer writhes than in controls are read as antinociception.

The target in another experiment is Sigma-1 (human) (Homo sapiens, UniProt Q99720). In words: sigma-1 radioligand binding screen. On the procedure:
(§2) The NMDA receptor (PCP site) screen was conducted according to Goldman, M. E. et al. FEBS Letters 85, […]. The norepinephrine transporter screen was conducted according to Galli A et al. J. Exp. Biol. 1995, 198, 2197. The dopamine and serotonin transporter screens were conducted according to Gu, H. et al. J. Biol. Chem. 1994, 269(10), 7124. The sigma-1 screen was conducted according to de Costa B. R. FEBS 1989, 251, 53.

The nature of experiment [4]: tail flick model (in vivo analgesia). Conditions: iv; administered intravenously. On the procedure:
as §1

Another experiment deals with NMDA (PCP site). The experiment in a line: NMDA receptor (PCP site) radioligand binding screen. On the procedure:
as §2

For experiment [5], the system named is rats. In words: MK-801-induced locomotion and stereotypies, animal model of psychosis. It counts as in vivo, rat. Conditions: male Wistar rats; 1.0, 2.5 and 5.0 mg/kg i.p.; 0.3 mg/kg MK-801 i.p. The text has this: The non-competitive NMDA receptor antagonist MK-801 induces stereotypies and hyperactivity in rodents (see: Carlsson, M. and Carlsson, A., J. Neural Transm., 75, 221 (1989)) by interacting with the NMDA receptor-associated ion channel. Phencyclidine, which also interferes with the NMDA receptor, produces psychotic effects in humans similar in many respects to schizophrenia. […] The neuroleptics haloperidol, clozapine and raclopride are able to reverse the behavioral changes induced by MK-801 in rats (Gattaz, W. F., Schummer, B. and Behrens, S., J. Neural Transm., 96, 227 (1994)). Therefore the MK-801-induced activity and stereotypies in rats may represent an appropriate animal model to test the potential efficacy of antipsychotic drugs.
Male Wistar rats (Iffa Credo, St Germain/l'Arbresle, France), weight 250-300 g were housed 2 per cage on a 12 h/12 h light dark cycle (lights on at 7.00 a.m.) at a room temperature of 21±2° C. for a minimum of 5 days before testing. All animals had access to commercial food and tap water ad libitum. […]
On the day of the experiment, rats were treated with either reference drug vehicle, the reference drugs haloperidol or clozapine the test compound vehicle or test compounds. […] Stereotypies, defined as wall-contacts with the snout, and locomotion, defined as turn-rounds of 180°, were assessed during 5 minute periods.

Another experiment has as its target NE Transporter (Homo sapiens, UniProt P23975). In words: norepinephrine transporter radioligand binding screen. The protocol: as §2
The next experiment concerns the target 5-HT Transporter (UniProt P31645). The experiment in a line: serotonin transporter radioligand binding screen. On the procedure:
as §2

Sigma-1 (human), sequence (Q99720 whole entry): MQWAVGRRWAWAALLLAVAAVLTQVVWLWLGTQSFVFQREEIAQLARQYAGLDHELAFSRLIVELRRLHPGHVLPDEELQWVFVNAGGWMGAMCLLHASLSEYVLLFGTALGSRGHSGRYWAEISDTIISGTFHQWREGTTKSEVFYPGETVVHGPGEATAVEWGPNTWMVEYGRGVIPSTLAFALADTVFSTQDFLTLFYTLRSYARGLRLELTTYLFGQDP
NE Transporter, sequence (P23975 whole entry): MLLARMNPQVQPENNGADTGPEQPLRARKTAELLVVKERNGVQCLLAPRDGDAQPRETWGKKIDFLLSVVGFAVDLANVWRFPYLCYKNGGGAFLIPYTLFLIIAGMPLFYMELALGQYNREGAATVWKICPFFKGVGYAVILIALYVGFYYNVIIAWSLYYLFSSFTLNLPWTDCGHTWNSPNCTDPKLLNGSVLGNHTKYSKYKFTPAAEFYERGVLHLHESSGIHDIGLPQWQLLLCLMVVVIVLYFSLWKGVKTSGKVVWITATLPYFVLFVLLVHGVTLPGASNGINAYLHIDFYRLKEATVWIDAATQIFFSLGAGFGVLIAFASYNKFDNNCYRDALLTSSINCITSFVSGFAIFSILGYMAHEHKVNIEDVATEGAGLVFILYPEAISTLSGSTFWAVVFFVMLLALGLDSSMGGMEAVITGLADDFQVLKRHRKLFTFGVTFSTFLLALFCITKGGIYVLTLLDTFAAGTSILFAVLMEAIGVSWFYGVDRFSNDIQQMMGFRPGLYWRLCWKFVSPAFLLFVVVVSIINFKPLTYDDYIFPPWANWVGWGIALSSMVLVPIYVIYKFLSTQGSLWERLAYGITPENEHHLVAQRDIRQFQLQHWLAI

For the compound `CS(=O)(=O)N(CC1CCCN(CCc2ccccc2)C1)c1ccccc1` (racemic) [Compound 6, N-(1-phenethyl-pieridin-3-ylmethyl)-N-phenyl-methanesulfonamide], the 50% effective dose (ED50) in [1] turned out to be 18 mg/kg; in experiment [3], 7.8 mg/kg; in experiment [4], 23 mg/kg. The “activity in the learned helplessness test” value in the experiment with rats [2] is listed as “active”. The same compound displayed an IC50 at Sigma-1 (human) of 118 nM.
Consider `CS(=O)(=O)N(CC1CCCNC1)c1ccccc1` (stereo not drawn) [Compound 5, N-phenyl-N-piperidin-3-ylmethyl-methanesulfonamide], for which the IC50 at NMDA (PCP site) came out at 108 nM.
`CS(=O)(=O)N(C[C@H]1CCCN(CCc2ccccc2)C1)c1ccccc1` [Compound 16, (S)-N-(1-phenethyl-pieridin-3-ylmethyl)-N-phenyl-methanesulfonamide] displayed an IC50 at Sigma-1 (human) of 22 nM. In the experiment with rats [5], the MK-801-induced locomotion result is “dose-dependent reduction” and the MK-801-induced stereotypies entry is given as “dose-dependent reduction”.
`CS(=O)(=O)N(C[C@@H]1CCCN(CCc2ccccc2)C1)c1ccccc1` [Compound 12, (R)-N-(1-phenethyl-pieridin-3-ylmethyl)-N-phenyl-methanesulfonamide] returned an IC50 on Sigma-1 (human) of 550 nM.
With `CS(=O)(=O)N(C[C@@H]1CCCN(CC2(c3ccc(Cl)cc3)CCC2)C1)c1ccccc1` [Compound 21, N-{1-[1-(4-Chloro-phenyl)-cyclobutylmethyl]-piperidin-3-R-ylmethyl}-N-phenyl-methanesulfon-amide], the values for the IC50 at NE Transporter and at 5-HT Transporter were 62 nM and 2800 nM, respectively.

Broadly, the ED50 is the dose at which the effect has come halfway, by size or by number of responders. The low end stands for greater potency, the high end for weaker potency. For orientation: IC50 means the concentration that inhibits the measured activity by half. A lower IC50 goes with greater potency in that assay.
